The values that follow come from patent publication US20250276100A1, “DEVELOPMENT OF NTSR TARGETED AGENTS FOR IMAGING AND THERAPY APPLICATIONS” (THE UNIVERSITY OF NORTH CAROLINA AT CHAPEL HILL, priority 2022, published 2025).

The structures appear in SMILES notation. “Also recorded” adds a separate entry of the source. Like-named read-outs stand apart in the source and are kept apart here. Where a SMILES comes first, the peptide text is derived from it. [ ]: non-standard residue; d: D form. The star is where a group is joined. Gly(1-amidinopiperidin-4-yl) = N=C(N)N1CCC([C@H](N)C(=O)O)CC1; Gly(piperidin-4-yl) = N[C@H](C(=O)O)C1CCNCC1; NMeR = CN[C@@H](CCCNC(=N)N)C(=O)O; Tle = CC(C)(C)[C@H](N)C(=O)O; X1 = O=S(=O)(CCOCCOCCF)CC* A value given as a limit tells only on which side of the number the result lay.

The test system of series [1] is tumor. From the text:
Copper-64 (t1/2=12.7 hr) decays by β+ (20%) and β− emission (37%), as well as electron capture (43%), making it well suited for radiolabeling proteins, antibodies and peptides, for both PET imaging (β+) and therapy (β+ and β−). Limitations to the chelating agents currently used with ^64Cu include significant loss of ^64Cu from the conjugate, leading to high uptake in the liver. In order to overcome this limitation, a new class of bifunctional chelators (BFCs) based on the hexaazamacrobicyclic sarcophagine cage SarAr (1-N-(4-aminobenzyl)-3,6,10,13,16,19-hexaazabicyclo[6.6.6]-eicosane-1,8-diamine) was synthesized. These ligands coordinate metal ions such as Cu^2+ within the multiple macrocyclic rings comprising the Sar cage structure, yielding extraordinarily stable complexes that are inert to dissociation of the metal ion. The functionalization approach of Sar cage was improved through a direct alkylation (SN2) reaction.
However, the kidneys have much higher tracer uptake compared with liver, while the pattern was reversed on PET imaging (Cu-64 falls off DOTA and leads to high liver uptake).

A short description of series [2]: side by side comparison of 64Cu labeled SR-CP-05 with NT peptide analogs and 3BP-227 (FIG. 8), tumor uptake and contrast. In kind it is in vivo. Particulars: tumor; for tissue uptake: mouse, NT peptide analogs, read-out: absolute tumor uptake value; for tissue uptake at 1 hr: FIG. 8 side by side comparison, 1 hr post injection. From the text: (§1) The NTSR1 targeted imaging agent was constructed based on NTS peptide derivatives. Although high tumor-to-background contrast could be obtained, the absolute tumor uptake was moderate with fast clearance from the subject. Moreover, these NTSR1 binding peptides are generally agonists of NTSR1, which may promote tumor progress at high concentration. This may not be a concern for PET imaging due to the limited amount, but it could be a potential risk in treatment. Antagonistic SR142948A based agents were developed, the lead agent being 3BP-227. Side by side comparisons between the lead agent SR-CP-05 and previously reported agents were performed. […] Importantly, SR-CP-05 maintained >15% ID/g tumor uptake at 48 hr post injection. In contrast, the tumor uptake of 3BP-227 decreased to 2.3% ID/g at 24 hr post injection. The unique distribution profile of SR-CP-05 can provide an imaging and radionuclide-based therapy agent targeting NTSR1.
(§2) SR-CP-05 was discovered to be well suited for therapy applications. […] Clearly, the fast clearance may be acceptable from an imaging point of view, but these ligands are not suited for therapeutic applications. […] Importantly, high contrast (tumor/background >20) was obtained at 1 hr post injection and the washout was minimal even after 48 hr post injection. […] Clearly, SR-CP-05 represents a highly promising ligand for both imaging and therapy applications.
(§3) Solution 1) The discovery of a new NTSR1 ligand SR-CP-05 for targeted imaging and therapy. The introduction of crosslinked polyamines into SR142948A (leading to the new agent, SR-CP-05) could increase the tumor uptake by 10 times compared with peptide based agents. Although the tumor to muscle contrast was reduced somewhat right after injection, the ratio is still >20 at 1 hr post injection. More importantly, the agent stayed within the tumor for up to 48 hr, making it useful for therapeutic applications as well. Side by side comparisons were made between SR-CP-05 and previously reported agents. […] Importantly, high contrast (tumor/muscle >20) was also obtained for SR-CP-05 at 1 hr post injection and the washout is minimal after 48 hr post injection (compared with tumor/muscle >3 at 1 hr post injection for 3BP-227). […] The unique distribution profile of SR-CP-05 provides an imaging and radionuclide-based therapy targeting NTSR1.

The target of series [3] is T1, NTSR1 (Homo sapiens, UniProt P30989).
T1 construct: from tissue; host or cells: NTSR1-positive tumour in vivo
The series is described as above. In kind it is in vivo.
Description: as §1, §2, §3

Series [4] addresses T1, NTSR1. Kind of series: in vivo distribution profile of SR-CP-05 derivatives (FIG. 13).
A short description of series [5]: microPET imaging and biodistribution of 18F labeled NTS peptide agent in PC3 tumor-bearing nude mice. The conditions noted are these: male, athymic nude, mouse, PC3 tumor model; for tissue to tissue ratio at 3 h: biodistribution at 3 hr post injection. In kind it is in vivo. As to the method: (§4) The arrow indicates tumor. […]
(§5) Stabilized NTS peptide derivatives and constructed NTSR1 PET agents have been developed. A stabilized NTS analog with a Cys for ^18F labeling (Cys-NTSmut: Cys-pipGly-Pro-pipAmGly-Arg-Pro-Tyr-tBuGly-Leu-OH) was designed. […] Biodistribution studies were performed at 3 hr post injection, showing the tumor to muscle, liver, and kidney ratios at 19.4±5.5, 15.6±4.1, and 3.0±0.3, respectively. […] Despite the high contrast, its tumor retention is low.
(§6) Robust ^18F-labeling methods for facile preparation of ^18F-NTS agents based on NT peptide derivatives were developed. As one of the commonly used PET radioisotopes, ^18F can be easily produced in high quantities on a medical cyclotron with an ideal half-life of 110 min for imaging applications. The half-life of ^18F is sufficient to allow synthesis, transportation, and imaging procedures to be extended over several hours, while the patient is subjected to a limited amount of radiation exposure. A platform technology based on vinyl sulfone and TTCO ligation was developed, both of which are highly efficient for ^18F PET probe construction. After establishing efficient ^18F labeling methods, a stabilized NTS analog was designed with a Cys for ^18F labeling (Cys-NTSmut: Cys-pipGly-Pro-pipAmGly-Arg-Pro-Tyr-tBuGly-Leu-OH). Both ^18F-VS and TTCO ligation have been used to construct ^18F labeled PET agents targeting NTSR1.

Series [6] deals with PC3 tumor. Described as above. In kind it is in vivo. The method, then: as §4, §5, §6
The mark [7] stands for this setting: PC3 tumor model, biodistribution at 3 hr post injection.

T1 sequence (P30989 whole entry): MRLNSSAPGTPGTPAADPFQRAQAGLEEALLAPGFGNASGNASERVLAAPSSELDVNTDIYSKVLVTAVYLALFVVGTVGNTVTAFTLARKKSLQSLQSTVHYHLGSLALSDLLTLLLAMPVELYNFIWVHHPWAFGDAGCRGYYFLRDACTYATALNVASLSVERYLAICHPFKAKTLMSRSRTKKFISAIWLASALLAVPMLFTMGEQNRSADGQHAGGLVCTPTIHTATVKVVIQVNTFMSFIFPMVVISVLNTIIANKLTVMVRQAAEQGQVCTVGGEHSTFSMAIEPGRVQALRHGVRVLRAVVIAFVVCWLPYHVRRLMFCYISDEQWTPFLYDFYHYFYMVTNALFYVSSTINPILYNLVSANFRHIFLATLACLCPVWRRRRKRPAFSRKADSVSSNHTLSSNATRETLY

For `CC[N+]1=C(/C=C/C=C/C=C2/N(CCCCCC(=O)NCCCC[C@H](NC(=O)CN3CCN(CC(=O)O)CCN(CC(=O)O)CCN(CC(=O)O)CC3)C(=O)NCCCCCC(=O)N[C@@H](CC(=O)O)C(=O)NCC(=O)N[C@@H](CCC(=O)O)C(=O)NC(C)C(=O)O)c3ccc4c(S(=O)(=O)O)cc(S(=O)(=O)O)cc4c3C2(C)C)C(C)(C)c2c1ccc1c(S(=O)(=O)[O-])cc(S(=O)(=O)O)cc21` (some centres unmarked) [DOTA-K(Cy5.5)-Ahx-DGEA], in series [1], the “in vivo distribution pattern” value is “discrepancy between optical and PET imaging”. Besides, the “ex vivo distribution pattern” value in series [1] (in vivo) was “discrepancy between optical and PET imaging”.

For `CC(=O)N[C@@H](CCCCN)C(=O)N1CCC[C@H]1C(=O)N(C)[C@@H](CCCNC(=N)N)C(=O)N[C@@H](CCCNC(=N)N)C(=O)N1CCC[C@H]1C(=O)N[C@@H](Cc1ccc(O)cc1)C(=O)N[C@H](C(=O)N[C@@H](CC(C)C)C(=O)O)C(C)(C)C` [NTS20.3, reference compound] (Ac-KP[NMeR]RPY[Tle]L-OH; N-terminus and C-terminus assumed), the tissue uptake in series [2] was approximately 1.5 %ID/g.

In the case of `CC(C)C[C@H](NC(=O)[C@@H](NC(=O)[C@H](Cc1ccc(O)cc1)NC(=O)[C@@H]1CCCN1C(=O)[C@H](CCCNC(=N)N)NC(=O)[C@@H](NC(=O)[C@@H]1CCCN1C(=O)[C@@H](N)C1CCNCC1)C1CCN(C(=N)N)CC1)C(C)(C)C)C(=O)O` [NTSmut, reference compound] (H-[Gly(piperidin-4-yl)]P[Gly(1-amidinopiperidin-4-yl)]RPY[Tle]L-OH; N-terminus and C-terminus assumed), the tissue uptake in series [2] is approximately 1.5 %ID/g.

`CNC(=O)c1ccc(-n2nc(C(=O)NC3(C(=O)O)C4CC5CC(C4)CC3C5)cc2-c2c(OC)cccc2OC)c(C(C)C)c1` (centres unmarked) [SR-CP-05]: the tissue uptake at 24 hr in series [2] (24 hr post injection) is more than 15 %ID/g. In addition, the tissue uptake at 48 hr in series [2] (48 hr post injection) is more than 15 %ID/g. Further, the values for the tissue uptake at 1 hr in series [2], in series [2] (other: injection (kind of injection not stated)) and in series [2] (other: injection) were 15.5 %ID/g, 15.6 %ID/g and 15.6 %ID/g, respectively. Moreover, the “overall side by side comparison” value in series [3] (64Cu labeled, FIG. 8) was “outperforms both NT peptide analogs and other agents based on SR142948A”. The same molecule showed a tumor/background contrast in series [3] (1 hr post injection) of more than 20. The tumor/muscle ratio in series [3] (1 hr post injection) is more than 20. Further, the tumor uptake in series [3] (FIG. 8 side by side comparison, 1 hr post injection) is more than 15 % ID/g; in series [3] (in vivo) it was “both high and persistent tumor uptake”. Further, the “tumor washout” value in series [3] (after 48 hr (two days) post injection) is “only a minimal amount of tumor wash out”. Further, the “time the agent stayed within the tumor” value in series [3] (in vivo) is on record as “up to 48 hr”. Moreover, in series [3] (side by side comparison), the “tumor uptake higher than 3BP-227” value was determined as 75%. In addition, the “liver uptake” value in series [4] (in vivo) is “still relatively high”.

Regarding `COc1cccc(OC)c1-c1cc(C(=O)NC2(C(=O)O)C3CC4CC(C3)CC2C4)nn1-c1ccc(C(=O)N(C)CCCN(C)C(=O)CN2CCCN3CCN(CCCN(CC(=O)O)CC3)CC2)cc1C(C)C` (centres unmarked) [SR-CP-18], the “distribution” value in series [4] (24 hr time point, FIG. 13) is “mainly showed tumor accumulation; also recorded: high contrast”. The “tumor uptake relative to SR-CP-05” value in series [4] (in vivo) is “less than half of SR-CP-05”.

Take `CC(C)C[C@H](NC(=O)[C@@H](NC(=O)[C@H](Cc1ccc(O)cc1)NC(=O)[C@@H]1CCCN1C(=O)[C@H](CCCNC(=N)N)NC(=O)[C@@H](NC(=O)[C@@H]1CCCN1C(=O)[C@@H](NC(=O)[C@@H](N)CSCCS(=O)(=O)CCOCCOCCF)C1CCNCC1)C1CCN(C(=N)N)CC1)C(C)(C)C)C(=O)O` [^18F-VS-Cys-NTSmut] (H-C(X1)[Gly(piperidin-4-yl)]P[Gly(1-amidinopiperidin-4-yl)]RPY[Tle]L-OH; N-terminus assumed): the tissue to tissue ratio at 3 h in series [5] (tumor and kidney, read-out: tumor/kidney ratio) is 3 ± 0.3. In addition, the tissue to tissue ratio at 3 h in series [5] (tumor and liver, read-out: tumor/liver ratio) is 15.6 ± 4.1. Also, the tissue to tissue ratio at 3 h in series [5] (tumor and muscle, read-out: tumor/muscle ratio) was 19.4 ± 5.5. The molecule further displayed a tissue uptake in series [5] of 1.3 %ID/g. Also, in series [6] (PC3 tumor model), the “background in major tissues/organs, including blood, muscle, liver and kidneys” value was “low background”; the “clearance from mice” value was “cleared out from mice within a few hours”; the “tumor retention” value is recorded as “low”; the tumor uptake is 1.3±0.1 % ID/g. In series [6] (setting [7]), the tumor/kidney ratio is reported as 3.0±0.3, the tumor/liver ratio turned out to be 15.6±4.1 and the tumor/muscle ratio is recorded as 19.4±5.5. The “tumor uptake in the presence of cold NTS peptide (receptor specificity)” value in series [6] (PC3 tumor, blocking with cold NTS peptide, listed as 18F-DEG-VS-NTS) is given as “successfully blocked; also recorded: efficiently blocked”.
